# Test results published in US20250241901A1, “ACTIVATION OF MNRR1 / CHCHD2 AS A THERAPEUTIC TARGET FOR MITOCHONDRIA ASSOCIATED DISORDERS” (Wayne State University, priority 2024, published 2025).
# Key:
# [1] = tested on: MELAS patient fibroblasts; experiment: Mitophagy and mitochondrial biogenesis markers in MELAS patient fibroblasts (immunoblot); assay type: cell-based, human; conditions: fibroblasts from three MELAS patients, 10 μM, 48 h
# Protocol: FIGS. 8A-8D: MNRR1 activation using tizoxanide enhances mitochondrial function, mitophagy, and protects from LPS-induced inflammation in MELAS patient fibroblasts. FIG. 8A: Equal amounts of lysates from MELAS patient fibroblast (MF 1, 2, or 3) lysates treated with vehicle (DMSO) or tizoxanide (10 μM) for 48 h were separated on an SDS-PAGE gel and probed for LC3B, PGC1a, MNRR1, MTCO2, TOM20, and phospho-ubiquitin (S65) levels. GAPDH orTubulin was probed as a loading control. FIG. 8B: Oxygen consumption measured from MELAS patient fibroblasts treated with vehicle (DMSO) or tizoxanide (10 μM) for 48 h (n=4 biological replicates, mean±SE). FIG. 8C: Mitochondrial ATP rate measured in MELAS patient fibroblasts treated with vehicle (DMSO) or tizoxanide (10 μM) for 48 h (n=4 biological replicates, mean±SE). […]
# Immunoblotting: Immunoblotting was performed as described previously. […] The clear supernatants were transferred to new tubes and quantified using the Bradford reagent with BSA as standard (BioRad, Hercules. CA). […] For detection after immunoblotting, the SuperSignal™ West Pico PLUS substrate (ThermoFisher, Waltham, MA) was used to generate chemiluminescence signal, which was detected with X-Ray film (RadTech, Vassar, MI).
# [2] = tested on: MELAS patient fibroblasts; experiment: Oxygen consumption and mitochondrial ATP rate in MELAS patient fibroblasts; assay type: cell-based, human; conditions: 10 μM, 48 h
# Protocol: FIGS. 8A-8D: MNRR1 activation using tizoxanide enhances mitochondrial function, mitophagy, and protects from LPS-induced inflammation in MELAS patient fibroblasts. FIG. 8A: Equal amounts of lysates from MELAS patient fibroblast (MF 1, 2, or 3) lysates treated with vehicle (DMSO) or tizoxanide (10 μM) for 48 h were separated on an SDS-PAGE gel and probed for LC3B, PGC1a, MNRR1, MTCO2, TOM20, and phospho-ubiquitin (S65) levels. GAPDH orTubulin was probed as a loading control. FIG. 8B: Oxygen consumption measured from MELAS patient fibroblasts treated with vehicle (DMSO) or tizoxanide (10 μM) for 48 h (n=4 biological replicates, mean±SE). FIG. 8C: Mitochondrial ATP rate measured in MELAS patient fibroblasts treated with vehicle (DMSO) or tizoxanide (10 μM) for 48 h (n=4 biological replicates, mean±SE). FIG. 8D: Heatmap representation of ROS and TNFα transcript levels from MELAS patient fibroblasts treated with vehicle (DMSO), LPS (DMSO+500 ng/mL LPS), or LPS plus tizoxanide (10 μM tizoxanide+500 ng/mL LPS) for 24 h (n=4 biological replicates). […]
# Intact cellular oxygen consumption and measurement of ATP: Cellular oxygen consumption was measured with a Seahorse XFe24 Bioanalyzer (Agilent). Cells were plated at a concentration of 3.5×10^4 per well a day prior to treatment and basal oxygen consumption was measured 48 h after treatments, as described. […]
# MNRR1 = experiment: MNRR1-luciferase reporter assay in HTR cells; assay type: cell-based; conditions: Homo sapiens; HTR8 cells, 24 h, relative to vehicle (DMSO); read-out: half-maximal effective concentration (EC50), activation of MNRR1 reporter
# Protocol: FIGS. 1A-1D. Nitazoxanide's anti-inflammatory effects are via transcriptional activation of MNRR1. (FIG. 1A) Results of a screen of ˜2400 FDA-approved drugs and natural compounds identified to transcriptionally activate (>1), inhibit (<1), or not affect (=1) MNRR1. Each circle represents one drug and the MNRR1 activator (nitazoxanide (N)) has been highlighted in green. (FIG. 1B) Equal numbers of HTR cells overexpressing the MNRR1-luciferase reporter were plated on a 96 well plate and treated with increasing amounts of nitazoxanide or vehicle (DMSO) for 24 h. EC50 was calculated using the activation of MNRR1 reporter relative to vehicle treated cells using the Quest Graph^TM EC50 Calculator. (FIG. 1C) TNF transcript levels were measured in human placental cells. Actin was used as a housekeeping gene for normalization. […]
# Transfections and luciferase reporter assays: HTR cells were transfected with the indicated plasmids, using TransFast transfection reagent (Promega, Madison, WI, USA) according to the manufacturer's protocol as previously described (Purandare et al., iScience, 25: 105342, 2022). […] EC50 was calculated by using the Quest Graph™ EC50 Calculator (AAT Bioquest, Inc., on the World Wide Web at aatbio.com/tools/ec50-calculator).
SMILES,"mitochondrial biogenesis (PGC1α, MTCO2, TOM20 levels) [1]",mitophagy (LCB and pSer-65 ubiquitin levels) [1],OCR [2],mitochondrial ATP levels [2],EC50 (MNRR1) [nM]
"O=C(Nc1ncc([N+](=O)[O-])s1)c1ccccc1O [tizoxanide, Tizoxanide]",enhances,enhances,enhanced,enhanced,
"CC(=O)Oc1ccccc1C(=O)Nc1ncc([N+](=O)[O-])s1 [nitazoxanide, Nitazoxanide]",,,,,115
